Measured values as given in patent US11116771B2, “G protein-coupled receptor (GPCR) modulation by imipridones” (Oncoceutics, Inc., priority 2016, dated 2021).
Counter-ions that a name gives are not always drawn.

How the values were obtained:
[1] = biological target: DRD2 alanine-scan mutation library (Homo sapiens, UniProt P14416, Y199A)
[2] = biological target: DRD2 alanine-scan mutation library (Homo sapiens, UniProt P14416, Y416A)
[3] = biological target: DRD2 alanine-scan mutation library (Homo sapiens, UniProt P14416, T205A)
[4] = biological target: DRD2 alanine-scan mutation library (Homo sapiens, UniProt P14416, S197A)
DRD2 alanine-scan mutation library (Homo sapiens, UniProt P14416, S197A), sequence (P14416 whole entry S197A): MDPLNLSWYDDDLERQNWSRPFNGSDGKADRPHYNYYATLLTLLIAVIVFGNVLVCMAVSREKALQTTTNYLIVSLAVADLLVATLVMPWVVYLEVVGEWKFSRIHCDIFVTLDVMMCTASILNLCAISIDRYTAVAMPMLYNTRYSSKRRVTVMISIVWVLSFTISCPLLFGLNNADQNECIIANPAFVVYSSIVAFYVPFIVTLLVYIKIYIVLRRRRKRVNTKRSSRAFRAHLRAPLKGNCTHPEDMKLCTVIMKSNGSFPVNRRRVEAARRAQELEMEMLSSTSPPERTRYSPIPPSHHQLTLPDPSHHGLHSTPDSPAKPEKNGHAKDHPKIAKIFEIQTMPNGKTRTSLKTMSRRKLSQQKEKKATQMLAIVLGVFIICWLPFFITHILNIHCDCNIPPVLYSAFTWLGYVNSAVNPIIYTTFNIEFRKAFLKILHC

[5] = biological target: DRD2 alanine-scan mutation library (Homo sapiens, UniProt P14416, V83A)
DRD2 alanine-scan mutation library (Homo sapiens, UniProt P14416, V83A), sequence (P14416 whole entry V83A): as the sequence (P14416 whole entry S197A) above, with V83A, A197S counted along it

[6] = biological target: DRD2 alanine-scan mutation library (Homo sapiens, UniProt P14416, Y192A)
DRD2 alanine-scan mutation library (Homo sapiens, UniProt P14416, Y192A), sequence (P14416 whole entry Y192A): as the sequence (P14416 whole entry S197A) above, with Y192A, A197S counted along it

[7] = biological target: DRD2 alanine-scan mutation library (Homo sapiens, UniProt P14416, A177S)
[8] = biological target: DRD2 alanine-scan mutation library (Homo sapiens, UniProt P14416, E95A)
DRD2 alanine-scan mutation library (Homo sapiens, UniProt P14416, E95A), sequence (P14416 whole entry E95A): as the sequence (P14416 whole entry S197A) above, with E95A, A197S counted along it

[9] = biological target: DRD2 alanine-scan mutation library (Homo sapiens, UniProt P14416, T119A)
DRD2 alanine-scan mutation library (Homo sapiens, UniProt P14416, T119A), sequence (P14416 whole entry T119A): as the sequence (P14416 whole entry S197A) above, with T119A, A197S counted along it

[10] = biological target: DRD2 alanine-scan mutation library (Homo sapiens, UniProt P14416, F198A)
[11] = biological target: DRD2 alanine-scan mutation library (Homo sapiens, UniProt P14416, C107A)
[12] = biological target: DRD2 alanine-scan mutation library (Homo sapiens, UniProt P14416, C182A)
DRD2 alanine-scan mutation library (Homo sapiens, UniProt P14416, C182A), sequence (P14416 whole entry C182A): as the sequence (P14416 whole entry S197A) above, with C182A, A197S counted along it

[13] = biological target: DRD2 alanine-scan mutation library (Homo sapiens, UniProt P14416, T165A)
[14] = biological target: DRD2 alanine-scan mutation library (Homo sapiens, UniProt P14416, F189A)
[15] = biological target: DRD2 alanine-scan mutation library (Homo sapiens, UniProt P14416, V196A)
[16] = biological target: DRD2 alanine-scan mutation library (Homo sapiens, UniProt P14416, D80A)
[17] = biological target: DRD2 alanine-scan mutation library (Homo sapiens, UniProt P14416, D114A)
[18] = biological target: DRD2 alanine-scan mutation library (Homo sapiens, UniProt P14416, S419A)
[19] = biological target: DRD2 alanine-scan mutation library (Homo sapiens, UniProt P14416, I394A)
[20] = biological target: DRD2 alanine-scan mutation library (Homo sapiens, UniProt P14416, I184A)
[21] = biological target: DRD2 alanine-scan mutation library (Homo sapiens, UniProt P14416, S7A)
DRD2 alanine-scan mutation library (Homo sapiens, UniProt P14416, S7A), sequence (P14416 whole entry S7A): as the sequence (P14416 whole entry S197A) above, with S7A, A197S counted along it

[22] = biological target: DRD2 alanine-scan mutation library (Homo sapiens, UniProt P14416, C118A)
[23] = biological target: DRD2 alanine-scan mutation library (Homo sapiens, UniProt P14416, L81A)
[24] = biological target: DRD2 alanine-scan mutation library (Homo sapiens, UniProt P14416, S121A)
DRD2 alanine-scan mutation library (Homo sapiens, UniProt P14416, S121A), sequence (P14416 whole entry S121A): as the sequence (P14416 whole entry S197A) above, with S121A, A197S counted along it

[25] = biological target: DRD2 alanine-scan mutation library (Homo sapiens, UniProt P14416, V190A)
[26] = biological target: DRD2 alanine-scan mutation library (Homo sapiens, UniProt P14416, H393A)
DRD2 alanine-scan mutation library (Homo sapiens, UniProt P14416, H393A), sequence (P14416 whole entry H393A): as the sequence (P14416 whole entry S197A) above, with A197S, H393A counted along it

[27] = biological target: DRD2 alanine-scan mutation library (Homo sapiens, UniProt P14416, I128A)
[28] = biological target: DRD2 alanine-scan mutation library (Homo sapiens, UniProt P14416, E248A)
[29] = biological target: DRD2 alanine-scan mutation library (Homo sapiens, UniProt P14416, I397A)
[30] = biological target: DRD2 alanine-scan mutation library (Homo sapiens, UniProt P14416, W386A)
[31] = biological target: DRD2 alanine-scan mutation library (Homo sapiens, UniProt P14416, I377A)
DRD2 alanine-scan mutation library (Homo sapiens, UniProt P14416, I377A), sequence (P14416 whole entry I377A): as the sequence (P14416 whole entry S197A) above, with A197S, I377A counted along it

[32] = biological target: DRD2 alanine-scan mutation library (Homo sapiens, UniProt P14416, S193A)
DRD2 alanine-scan mutation library (Homo sapiens, UniProt P14416, S193A), sequence (P14416 whole entry S193A): as the sequence (P14416 whole entry S197A) above, with S193A, A197S counted along it

[33] = biological target: DRD2 alanine-scan mutation library (Homo sapiens, UniProt P14416, R132A)
[34] = biological target: DRD2 alanine-scan mutation library (Homo sapiens, UniProt P14416, I122A)
[35] = biological target: DRD2 alanine-scan mutation library (Homo sapiens, UniProt P14416, L125A)
[36] = biological target: DRD2 alanine-scan mutation library (Homo sapiens, UniProt P14416, N23A)
[37] = biological target: DRD2 alanine-scan mutation library (Homo sapiens, UniProt P14416, V91A)
[38] = system: Staphylococcus aureus ATCC# 6538
[39] = system: Candida albicans ATCC# 10231; conditions: 1:300 with TSB Mod Dilution
[40] = system: Bacillus subtilis ATCC# 6633; conditions: 1:300 with TSB Mod Dilution; inoculum count 52
[41] = system: Pseudomonas aeruginosa ATCC# 9027; conditions: 1:300 with TSB Mod Dilution; inoculum count 28
[42] = system: Aspergillus brasiliensis ATCC# 16404; conditions: 1:300 with TSB Mod Dilution

SMILES: NCCc1ccc(O)c(O)c1 [Dopamine, dopamine]
- Calcium Flux % WT [1]: 20 % WT
- Calcium Flux % WT [2]: 12 % WT
- Calcium Flux % WT [3]: 24 % WT
- Calcium Flux % WT [4]: 0 % WT
- Calcium Flux % WT [5]: 10 % WT
- Calcium Flux as a % of flux with WT DRD2 (100), Dopamine 1 nM [6]: 64%
- Calcium Flux as a % of flux with WT DRD2 (100), Dopamine 1 nM [7]: 85%
- Calcium Flux as a % of flux with WT DRD2 (100), Dopamine 1 nM [8]: 123%
- Calcium Flux % WT [9]: 1 % WT
- Calcium Flux % WT [10]: 10 % WT
- Calcium Flux % WT [11]: 20 % WT
- Calcium Flux % WT [12]: 0 % WT
- Calcium Flux as a % of flux with WT DRD2 (100), Dopamine 1 nM [13]: 92%
- Calcium Flux % WT [14]: 22 % WT
- Calcium Flux as a % of flux with WT DRD2 (100), Dopamine 1 nM [15]: 119%
- Calcium Flux % WT [16]: 3 % WT
- Calcium Flux % WT [17]: 4 % WT
- Calcium Flux % WT [18]: 20 % WT
- Calcium Flux % WT [19]: 16 % WT
- Calcium Flux % WT [20]: 0 % WT
- Calcium Flux % WT [21]: 15 % WT
- Calcium Flux % WT [22]: 14 % WT
- Calcium Flux as a % of flux with WT DRD2 (100), Dopamine 1 nM [23]: 83%
- Calcium Flux % WT [24]: 16 % WT
- Calcium Flux % WT [25]: 20 % WT
- Calcium Flux % WT [26]: 4 % WT
- Calcium Flux % WT [27]: 27 % WT
- Calcium Flux % WT [28]: 19 % WT
- Calcium Flux as a % of flux with WT DRD2 (100), Dopamine 1 nM [29]: 105%
- Calcium Flux % WT [30]: 15 % WT
- Calcium Flux % WT [31]: 11 % WT
- Calcium Flux % WT [32]: 1 % WT
- Calcium Flux % WT [33]: 3 % WT
- Calcium Flux % WT [34]: 23 % WT
- Calcium Flux % WT [35]: 25 % WT
- Calcium Flux % WT [36]: 25 % WT
- Calcium Flux as a % of flux with WT DRD2 (100), Dopamine 1 nM [37]: 119%

SMILES: Cc1ccccc1CN1C(=O)C2=C(CCN(Cc3ccccc3)C2)N2CCN=C12 [ONC201 dihydrochloride]
- Indicator Organisms Count, Sa [38]: 0
- Indicator Organisms Count, Ca (TSA) ([39]; inoculum count 48): 51
- Indicator Organisms Count, CA (SDA) ([39]; inoculum count 52): 46
- Indicator Organisms Count, Bs [40]: 48
- Indicator Organisms Count, Pa [41]: 24
- Indicator Organisms Count, Ab (SDA) ([42]; inoculum count 20): 19
- Indicator Organisms Count, Ab (TSA) ([42]; inoculum count 21): 18
